In paper PMC11359963 (Pharmaceutics, 2024):
Non-standard residues stand in square brackets, D forms with d. Residues, ends and D or L forms follow the SMILES beside them. β3hF = N[C@H](CC(=O)O)Cc1ccccc1

Key:
[1] = test system: contact sensitivity to oxazolone mouse model; assay: Contact sensitivity to oxazolone; format: in vivo; conditions: 0.1% ointment on auricles
From the text: (§1) C57Bl/6 female mice, 8–10 weeks old and weighing 19–22 g, were delivered by the Breeding Centre of Laboratory Animals at the Institute of Occupational Medicine, Łódź, Poland and used for this study. Mice had free access to granulated food and filtered water. The local ethics committee at the Institute of Immunology and Experimental Therapy, Wrocław, Poland, approved this study (permission #37/2012).
(§2) Blood smears were made on microscopic glasses, and the preparations were dried and stained with Giemsa and May–Grünwald dyes. The blood picture was evaluated in a light microscope at 1000× magnification in immersion oil. Up to 100 cells were counted per preparation. The results were shown as a percentage of mean values of respective cell types: mature neutrophils, band forms of neutrophils, eosinophils, lymphocytes, and monocytes.
The test was performed as described by others, with some modifications. Mice were shaved on the abdomen and after 24 h, 100 µL of 0.5% oxazolone in acetone was applied topically. […] The ear edema was measured after 24 h using a spring caliper. […]
Five to nine mice per group were used in the experiments. […] Nonparametric data were evaluated with the Kruskal–Wallis analysis of variance (ANOVA of K–W), as indicated in the text. Significance was determined at p < 0.05. […]

[2] = 100 μg/mL; unpublished
[3] = test system: TNF-α; assay: LPS-induced TNF-α production in human whole blood cell cultures (WEHI 164.13 bioassay); format: cell-based; conditions: for % of Inhibition vs. DMSO Control / TNF-α: LPS 1 µg/mL; for % of Inhibition vs. DMSO Control: TNF-α production; for TNF-α: whole blood diluted 10×, overnight, single cultures; for Suppressive Effect on TNF-α Production: summary of structure-activity relationship, LPS-induced, whole blood
Description: Human whole blood was diluted 10× with RPMI-1640 medium and distributed to 24-well culture plates in 1 mL aliquots. LPS was added to the culture at a concentration of 1 µg/mL. The studied peptides were used at concentrations of 1, 10, and 100 µg/mL. After overnight incubation, the supernatants were harvested and frozen at −20 °C until cytokine determination. TNF-α activity was determined using a bioassay with the highly sensitive cell line WEHI 164.13 [29]. Briefly, cells were seeded at a concentration of 2 × 10^4 cells/well in quadruplicate. Increasing dilutions of the assayed supernatant were mixed with the target cells in the presence of actinomycin D (1 µg/mL). After 20 h of incubation, MTT was added into the wells, and the cultures were incubated for an additional 4 h. Next, a lysing buffer (20% SDS with 50% DMF, pH 4.7) was added and the OD at 550/630 nm in a spectrophotometer was measured after 24 h. The detection limit of the assay was about 2.5 pg/mL. One unit of TNF-α activity was defined as an inverse of supernatant dilution where 50% cell death took place. No statistics were applied here since the data were derived from single cultures (wells).

[4] = test system: carrageenan-induced inflammation of the air pouch, mouse model; assay: Carrageenan-induced inflammation of air pouches; format: in vivo; conditions: 100 µg/mouse into air pouch; for Eosinophils in peripheral blood: control mice 9.6%; for Neutrophils in peripheral blood: control mice 37%; for Degranulated mastocytes in air pouches: control untreated air pouches 89.7%
From the text: as §1, §2
Air pouches were formed by a subdermal injection into the dorsal area (under halothane anesthesia) of 5 mL of air (23 G × 11/4 needle, 5 mL syringe). On the next day, the air pouches were supplemented by 1 mL of air and injected with 0.5 mL of 1% carrageenan solution in PBS. The peptides were dissolved in DMSO (1 mg/100 µL DMSO) and supplemented with 0.9% NaCl solution to a volume of 0.2 mL. P03 and 4B8M peptides were injected into air pouches at a dose of 100 µg/mouse 30 min after carrageenan administration. BG mice received the respective amount of DMSO in 0.9% NaCl. Control mice were given only carrageenan solution plus the respective amount of DMSO. The next day, the mice were bled to perform blood smears and sacrificed. A total of 1 mL of 0.9% NaCl was injected into air pouches and the content aspirated. From this source, a total number was determined, the rest were centrifuged, and from a cell pellet, the smears were performed on microscopic glasses and stained with Giemsa and May Grunwald reagents. The cell composition of air pouch exudates was analyzed and the results were shown as a percentage (mean values of the respective cell types: neutrophils, band forms of neutrophils, eosinophils, basophils, lymphocytes, macrophages, and mastocytes).
Five to nine mice per group were used in the experiments. Results (where applicable) are presented as mean values ± standard error (SE). The Brown–Forsyth test was used to determine the homogeneity of variance between groups. When the variance was homogenous, analysis of variance (one-way ANOVA) was applied, followed by post hoc comparisons with Tukey’s test to estimate the significance of the differences between groups. Nonparametric data were evaluated with the Kruskal–Wallis analysis of variance (ANOVA of K–W), as indicated in the text. Significance was determined at p < 0.05. Statistical analysis was performed using […] 7.0 for Windows.

[5] = test system: murine leukemia L1210; conditions: 100 μg/mL; unpublished
[6] = test system: human PBMCs; assay: Proliferative response of PBMC to PHA (MTT); format: cell-based; conditions: summary of structure-activity relationship; PHA-induced PBMC proliferation, 1-100 µg/mL
Description: PBMCs were isolated by centrifugation on a Ficoll-uropoline gradient (density 1.077 g/mL) (Lymphoprep, PAA Laboratories, Linz, Austria), at 800× g for 20 min at 4 °C. The interphase cells were then washed three times with Hanks’ medium and re-suspended in the culture medium (RPMI-1640 with 10% addition of FCS, L-glutamine, sodium pyruvate, 2-mercaptoetanol, and the antibiotics streptomycin and penicillin) at a density of 2 × 10^6 cells/mL.
The isolated PBMCs were distributed into 96-well flat-bottom plates in 100 µL aliquots (2 × 10^5 cells/well). PHA was used at a concentration of 5 µg/mL. The compounds were tested at concentrations of 1, 10, and 100 µg/mL. DMSO at appropriate dilutions served as a control solvent. After a 4-day incubation in a cell culture incubator, the proliferative response of the cells was determined by the colorimetric MTT method [28] in a Dynatech 5000 spectrophotometer. Data (OPSYS MR Dynex Technologies, Chantilly, VA, USA) are presented as a mean optical density (OD) at 550 nm, with a reference wavelength of 630 nm, from quadruplicate wells ± standard error (SE). The control cultures contained no PHA or PHA without the studied compounds.
The assay was performed by the MTT colorimetric method [29]. […] After additional overnight incubation, the OD was measured at 550/630 nm (Dynatech 5000 spectrophotometer).

[7] = test system: mouse splenocytes; assay: ConA-induced proliferation of mouse splenocytes (unpublished data); format: cell-based; conditions: other data (unpublished)

O=C1C[C@H](Cc2ccccc2)NC(=O)[C@@H]2CCCN2C(=O)[C@H]2CCCN2C(=O)[C@H](Cc2ccccc2)N1 [P03, cyclo-[D-Pro-Pro-β^3-HoPhe-Phe-]] (cyclo([dP]P[β3hF]F))
Percentage of all myeloid cell types in circulating blood [1]: significantly reduced
Inhibition of growth of A431 cells [2]: 15%
% of Inhibition vs. DMSO Control ([3]; peptide 1 µg/mL): 25.9%
TNF-α ([3]; peptide 1 µg/mL): 6052 pg/mL
% of Inhibition vs. DMSO Control ([3]; peptide 10 µg/mL): 34.8%
TNF-α ([3]; peptide 10 µg/mL): 5222 pg/mL
Suppressive Effect on TNF-α Production [3]: strong
Eosinophils in peripheral blood [4]: 2.0%
Neutrophils in peripheral blood [4]: 23%
Degranulated mastocytes in air pouches [4]: 28.7%
Inhibition of growth of L1210 cells [5]: 34%
Suppressive Effect on Cell Proliferation [6]: significant at 100 µg/mL

cyclo- [P02, cyclo-[D-Pro-D-Pro-β^3-HoPhe-D-Phe-]]
% of Inhibition vs. DMSO Control ([3]; peptide 1 µg/mL): 19.0%
TNF-α ([3]; peptide 1 µg/mL): 6614 pg/mL
% of Inhibition vs. DMSO Control ([3]; peptide 10 µg/mL): 20.7%
TNF-α ([3]; peptide 10 µg/mL): 6346 pg/mL
Suppressive Effect on TNF-α Production [3]: small

cyclo-[D-Pro-D-Pro-D-β^3-HoPhe-D-Phe-] [P06]
% of Inhibition vs. DMSO Control ([3]; peptide 1 µg/mL): 1.6%
TNF-α ([3]; peptide 1 µg/mL): 8033 pg/mL
% of Inhibition vs. DMSO Control ([3]; peptide 10 µg/mL): 4.4%
TNF-α ([3]; peptide 10 µg/mL): 7658 pg/mL
Suppressive Effect on TNF-α Production [3]: absent

cyclo-[D-Pro-D-Pro-β^3-HoPhe-Phe-] (head to tail) [P07]
% of Inhibition vs. DMSO Control ([3]; peptide 1 µg/mL): 21.0%
TNF-α ([3]; peptide 1 µg/mL): 6453 pg/mL
% of Inhibition vs. DMSO Control ([3]; peptide 10 µg/mL): 9.0%
TNF-α ([3]; peptide 10 µg/mL): 7284 pg/mL
Suppressive Effect on TNF-α Production [3]: small

cyclo-[Pro-D-Pro-β^3-HoPhe-Phe-] (head to tail) [P05]
% of Inhibition vs. DMSO Control ([3]; peptide 1 µg/mL): 12.8%
TNF-α ([3]; peptide 1 µg/mL): 7123 pg/mL
% of Inhibition vs. DMSO Control ([3]; peptide 10 µg/mL): 10.0%
TNF-α ([3]; peptide 10 µg/mL): 7203 pg/mL

cyclo-[Pro-Pro-D-β^3-HoPhe-Phe-] (head to tail) [P04]
% of Inhibition vs. DMSO Control ([3]; peptide 1 µg/mL): 33.1%
TNF-α ([3]; peptide 1 µg/mL): 5463 pg/mL
% of Inhibition vs. DMSO Control ([3]; peptide 10 µg/mL): 33.8%
TNF-α ([3]; peptide 10 µg/mL): 5302 pg/mL
Suppressive Effect on TNF-α Production [3]: strong

cyclo[Pro-Pro-β^3-HoPhe-D-Phe-] (head to tail) [P01]
% of Inhibition vs. DMSO Control ([3]; peptide 1 µg/mL): 14.1%
TNF-α ([3]; peptide 1 µg/mL): 7016 pg/mL
% of Inhibition vs. DMSO Control ([3]; peptide 10 µg/mL): 28.1%
TNF-α ([3]; peptide 10 µg/mL): 5757 pg/mL

cyclo[Pro-Pro-β^3-HoPhe-Phe-] (head to tail) [P00, cyclo-[Pro-Pro-β^3-HoPhe-Phe-], reference compound]
% of Inhibition vs. DMSO Control ([3]; peptide 1 µg/mL): 9.8%
TNF-α ([3]; peptide 1 µg/mL): 7364 pg/mL
% of Inhibition vs. DMSO Control ([3]; peptide 10 µg/mL): 10.4%
TNF-α ([3]; peptide 10 µg/mL): 7176 pg/mL
Eosinophils in peripheral blood [4]: 3.4%
Neutrophils in peripheral blood [4]: 31.5%
Degranulated mastocytes in air pouches [4]: 39.5%
Inhibition of concanavalin A (ConA)-induced proliferation of mouse splenocytes [7]: moderate inhibition
